Earlier results on four molecules are cited in patent US20070232597A1, “Compounds, Compositions, and Methods” (priority 2003, published 2007).

Structures are written as SMILES.

The subject of this data set is A549 cells. To be noted: data provided by National Cancer Institute, Developmental Therapeutic Program.

For `O=c1[nH]cc(F)c(=O)[nH]1` [5-fluorouracil], the GI50 was 1000 nM.
In the case of `COc1cccc2c1C(=O)c1c(O)c3c(c(O)c1C2=O)C[C@@](O)(C(=O)CO)C[C@@H]3O[C@H]1C[C@H](N)[C@H](O)[C@H](C)O1` [doxorubicin], the GI50 was 63 nM.
With `NC(=O)NO` [hydroxyurea], the GI50 is 500000 nM.
`CC(=O)O[C@H]1C(=O)[C@@]2(C)[C@H]([C@H](OC(=O)c3ccccc3)[C@]3(O)C[C@H](OC(=O)[C@H](O)[C@@H](NC(=O)c4ccccc4)c4ccccc4)C(C)=C1C3(C)C)[C@]1(OC(C)=O)CO[C@@H]1C[C@@H]2O` [paclitaxel]: the GI50 is 4 nM.

In general, GI50 refers to the concentration that inhibits growth by half.
